PubChem BioAssay AID328 (DTP/NCI, 2004)
Where “and” joins values, the source holds several entries; their conditions need not be identical. Equal entries are not always repeated. Inconclusive results and toxic doses are left out. The calls were made as follows: active = survival T/C of 150% or more; inactive = T/C below 125% in these data.

Test system: BDF1 mice, P388 leukemia ip, median survival T/C
Experiment: NCI In Vivo Anticancer Drug Screen. Data for tumor model P388 Leukemia (intraperitoneal) in B6D2F1 (BDF1) mice
Conditions: endpoint: median survival time, higher = longer survival
Method in brief: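 In tumour-bearing mice, survival after compound treatment is set against the vehicle group and given as a quotient.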

[1] = dose: 20.0 mg/kg/injection, schedule: Q01DX009 (ip), vehicle: saline
[2] = dose: 50.0 mg/kg/injection, schedule: Q01DX009 (ip), vehicle: saline
[3] = dose: 50.0 mg/kg/injection, schedule: Q04DX003 (ip), vehicle: saline
[4] = dose: 100.0 mg/kg/injection, schedule: Q01DX009 (ip), vehicle: saline
[5] = dose: 100.0 mg/kg/injection, schedule: Q04DX003 (ip), vehicle: saline
[6] = dose: 200.0 mg/kg/injection, schedule: Q04DX003 (ip), vehicle: saline
[7] = dose: 400.0 mg/kg/injection, schedule: Q04DX003 (ip), vehicle: saline
[8] = dose: 50.0 mg/kg/injection, schedule: Q01DX009 (ip), vehicle: saline with Tween-80
[9] = dose: 100.0 mg/kg/injection, schedule: Q01DX009 (ip), vehicle: Klucel (hydroxypropylcellulose) (HPC)
[10] = dose: 100.0 mg/kg/injection, schedule: Q04DX003 (ip), vehicle: Klucel (hydroxypropylcellulose) (HPC)
[11] = dose: 100.0 mg/kg/injection, schedule: Q04DX003 (ip), vehicle: saline with Tween-80
[12] = dose: 200.0 mg/kg/injection, schedule: Q04DX003 (ip), vehicle: saline with Tween-80
[13] = dose: 400.0 mg/kg/injection, schedule: Q04DX003 (ip), vehicle: saline with Tween-80
[14] = dose: 25.0 mg/kg/injection, schedule: Q04DX003 (ip), vehicle: saline

Measured: T/C

CC(=O)Nc1cc(F)c([N+](=O)[O-])cc1[N+](=O)[O-]
300 % of control and 110 % of control: dose: 5.0 mg/kg/injection, schedule: Q01DX009 (ip), vehicle: saline
300 % of control and 105 % of control: dose: 10.0 mg/kg/injection, schedule: Q01DX009 (ip), vehicle: saline
inactive: dose: 0.62 mg/kg/injection, schedule: Q01DX009 (ip), vehicle: saline 115 % of control | dose: 1.25 mg/kg/injection, schedule: Q01DX009 (ip), vehicle: saline 100 % of control | dose: 2.5 mg/kg/injection, schedule: Q01DX009 (ip), vehicle: Klucel (hydroxypropylcellulose) (HPC) 105 % of control | dose: 5.0 mg/kg/injection, schedule: Q01DX009 (ip), vehicle: Klucel (hydroxypropylcellulose) (HPC) 115 % of control | dose: 10.0 mg/kg/injection, schedule: Q01DX009 (ip), vehicle: Klucel (hydroxypropylcellulose) (HPC) 100 % of control | dose: 20.0 mg/kg/injection, schedule: Q01DX009 (ip), vehicle: Klucel (hydroxypropylcellulose) (HPC) 110 % of control | [1] 95 % of control
300 % of control and 100 % of control: dose: 2.5 mg/kg/injection, schedule: Q01DX009 (ip), vehicle: saline

COc1cccc(CC(N)=O)c1OC
inactive: dose: 25.0 mg/kg/injection, schedule: Q01DX009 (ip), vehicle: saline 99 % of control | [2] 99 % of control | [3] 109 % of control | [4] 97 % of control | [5] 87 % of control and 99 % of control | dose: 200.0 mg/kg/injection, schedule: Q01DX009 (ip), vehicle: saline 92 % of control | [6] 90 % of control and 94 % of control | [7] 100 % of control

Cc1nn(CCO)c(-c2ccccc2)c1-n1on1-c1c(C)nn(CCO)c1-c1ccccc1
inactive: [8] 101 % of control

O=C(O)c1cc(O)c(Br)c(O)c1
inactive: dose: 100.0 mg/kg/injection, schedule: Q01DX001 (ip), vehicle: saline with Tween-80 109 % of control | dose: 200.0 mg/kg/injection, schedule: Q01DX001 (ip), vehicle: saline with Tween-80 100 % of control | dose: 400.0 mg/kg/injection, schedule: Q01DX001 (ip), vehicle: saline with Tween-80 104 % of control

O=C(c1ccccc1)C1Cc2ccccc2C1=O (centres undefined)
inactive: dose: 100.0 mg/kg/injection, schedule: Q01DX001 (ip), vehicle: Klucel (hydroxypropylcellulose) (HPC) 100 % of control | [9] 113 % of control | [10] 100 % of control | dose: 200.0 mg/kg/injection, schedule: Q01DX001 (ip), vehicle: Klucel (hydroxypropylcellulose) (HPC) 100 % of control | dose: 200.0 mg/kg/injection, schedule: Q01DX009 (ip), vehicle: Klucel (hydroxypropylcellulose) (HPC) 109 % of control | dose: 200.0 mg/kg/injection, schedule: Q04DX003 (ip), vehicle: Klucel (hydroxypropylcellulose) (HPC) 100 % of control | dose: 400.0 mg/kg/injection, schedule: Q01DX001 (ip), vehicle: Klucel (hydroxypropylcellulose) (HPC) 95 % of control | dose: 400.0 mg/kg/injection, schedule: Q01DX009 (ip), vehicle: Klucel (hydroxypropylcellulose) (HPC) 118 % of control | dose: 400.0 mg/kg/injection, schedule: Q04DX003 (ip), vehicle: Klucel (hydroxypropylcellulose) (HPC) 90 % of control

CC(=O)OC(C)(C)c1ccccc1[S+]1OC(C)(C)c2ccccc21 (centres undefined)
inactive: dose: 100.0 mg/kg/injection, schedule: Q01DX001 (ip), vehicle: other 100 % of control

O=C(O)c1cc(Br)ccc1OCc1ccc(Cl)cc1
inactive: [11] 106 % of control | [12] 99 % of control | [13] 110 % of control

C[N+](C)(Cn1ncc2cc([N+](=O)[O-])ccc21)Cn1ncc2cc([N+](=O)[O-])ccc21
inactive: [11] 113 % of control | [12] 104 % of control

COc1ccc(N2CCN(c3ccc([N+](=O)[O-])c4no[n+]([O-])c34)CC2)cc1
inactive: dose: 15.0 mg/kg/injection, schedule: Q04DX003 (ip), vehicle: saline with Tween-80 101 % of control | dose: 30.0 mg/kg/injection, schedule: Q04DX003 (ip), vehicle: saline with Tween-80 100 % of control | dose: 60.0 mg/kg/injection, schedule: Q04DX003 (ip), vehicle: saline with Tween-80 104 % of control

CCCCN=C(N)N=C(N)N
inactive: [2] 105 % of control | [4] 108 % of control

O=C1C=C(SCCO)C(=O)c2ccccc21
inactive: dose: 0.37 mg/kg/injection, schedule: Q04DX003 (ip), vehicle: saline 100 % of control | dose: 0.75 mg/kg/injection, schedule: Q04DX003 (ip), vehicle: saline 104 % of control | dose: 1.5 mg/kg/injection, schedule: Q04DX003 (ip), vehicle: saline 109 % of control

O=C1C=CC(=Nc2ccc3c(c2)C(Br)c2ccccc2-3)O1 (centres undefined)
inactive: dose: 2.25 mg/kg/injection, schedule: Q01DX009 (ip), vehicle: saline 100 % of control | dose: 4.5 mg/kg/injection, schedule: Q01DX009 (ip), vehicle: saline 100 % of control | dose: 9.0 mg/kg/injection, schedule: Q01DX009 (ip), vehicle: saline 100 % of control | dose: 13.0 mg/kg/injection, schedule: Q01DX009 (ip), vehicle: saline 105 % of control | [1] 100 % of control | dose: 30.0 mg/kg/injection, schedule: Q01DX009 (ip), vehicle: saline 120 % of control | dose: 95.0 mg/kg/injection, schedule: Q04DX003 (ip), vehicle: saline 109 % of control | dose: 145.0 mg/kg/injection, schedule: Q04DX003 (ip), vehicle: saline 118 % of control

CC1=C(Br)C(=O)C(c2c(C)cc(C)cc2C)=C(Br)C1=O
inactive: dose: 6.25 mg/kg/injection, schedule: Q01DX009 (ip), vehicle: saline 86 % of control | dose: 12.5 mg/kg/injection, schedule: Q01DX009 (ip), vehicle: saline 93 % of control | dose: 12.5 mg/kg/injection, schedule: Q04DX003 (ip), vehicle: saline 104 % of control | [14] 95 % of control | [3] 105 % of control | [5] 97 % of control | [6] 95 % of control

CC1(CCNC2CCCCC2)Oc2ccccc2O1
inactive: dose: 50.0 mg/kg/injection, schedule: Q04DX002 (ip), vehicle: Klucel (hydroxypropylcellulose) (HPC) 99 % of control | dose: 100.0 mg/kg/injection, schedule: Q04DX002 (ip), vehicle: Klucel (hydroxypropylcellulose) (HPC) 101 % of control

CC(=O)Nc1cc(C)cc(CO)c1C
inactive: dose: 25.0 mg/kg/injection, schedule: Q04DX003 (ip), vehicle: saline with Tween-80 86 % of control | dose: 50.0 mg/kg/injection, schedule: Q04DX003 (ip), vehicle: saline with Tween-80 96 % of control | [11] 93 % of control | [12] 88 % of control

O=C(CCl)N1CCc2ccccc21
inactive: dose: 25.0 mg/kg/injection, schedule: Q01DX009 (ip), vehicle: Klucel (hydroxypropylcellulose) (HPC) 104 % of control | dose: 25.0 mg/kg/injection, schedule: Q04DX003 (ip), vehicle: Klucel (hydroxypropylcellulose) (HPC) 90 % of control | dose: 50.0 mg/kg/injection, schedule: Q01DX009 (ip), vehicle: Klucel (hydroxypropylcellulose) (HPC) 100 % of control | dose: 50.0 mg/kg/injection, schedule: Q04DX003 (ip), vehicle: Klucel (hydroxypropylcellulose) (HPC) 100 % of control | [9] 86 % of control | [10] 95 % of control

CC1(C)C2C=CC1C(CO)(CO)C2 (centres undefined)
inactive: dose: 100.0 mg/kg/injection, schedule: Q01DX001 (ip), vehicle: saline 100 % of control | [5] 100 % of control | dose: 200.0 mg/kg/injection, schedule: Q01DX001 (ip), vehicle: saline 104 % of control | [6] 91 % of control | dose: 400.0 mg/kg/injection, schedule: Q01DX001 (ip), vehicle: saline 108 % of control | [7] 100 % of control

COc1cccc2c1N=C1CCCC3CN(C(C)=O)CCC123 (centres undefined)
inactive: [8] 99 % of control | dose: 100.0 mg/kg/injection, schedule: Q01DX009 (ip), vehicle: saline with Tween-80 103 % of control | dose: 200.0 mg/kg/injection, schedule: Q01DX009 (ip), vehicle: saline with Tween-80 99 % of control

O=NN1CCNC1=O
inactive: dose: 10.0 mg/kg/injection, schedule: Q04DX003 (ip), vehicle: saline 113 % of control | [14] 86 % of control | dose: 37.5 mg/kg/injection, schedule: Q04DX003 (ip), vehicle: saline 90 % of control
active: dose: 7.2 mg/kg/injection, schedule: Q04DX003 (ip), vehicle: saline 172 % of control | dose: 16.5 mg/kg/injection, schedule: Q04DX003 (ip), vehicle: saline 209 % of control

CCCCNC(=S)Nc1sc(C)c(C)c1C(=O)OCC
inactive: [11] 106 % of control | [12] 99 % of control | [13] 99 % of control
